# Source: US20070196421A1, “Soft tissue implants and drug combination compositions, and use thereof” (priority 2005, published 2007)
# Columns and labels:
# [1] = system: stromelysin (MMP-3) mRNA; experiment: IL-1 induced stromelysin (MMP-3) mRNA expression in chondrocytes, Northern blot; details: 10^−5 M, 24 hours pretreatment, IL-1β 20 ng/ml
# [2] = system: AP-1 DNA binding activity; experiment: IL-1 induced AP-1 DNA binding activity, gel mobility shift assay of chondrocyte extracts; format: cell-based; details: chondrocyte lysates, pretreated 10^−7 to 10^−5 M for 24 hours, IL-1β 20 ng/ml
# Experimental: Binding activity was assayed with a radiolabeled human AP-1 sequence probe and gel mobility shift assay. Extracts from chondrocytes untreated or treated with various amounts of paclitaxel (10^−7 to 10^−5 M) followed by IL-1β (20 ng/ml) were incubated with excess probe on ice for 30 minutes, followed by non-denaturing gel electrophoresis. The “com” lane contains excess unlabeled AP-1 oligonucleotide. The results shown are representative of three independent experiments.
# [3] = system: stromelysin; experiment: IL-1 induced stromelysin RNA levels in chondrocytes (FIG. 1D); format: cell-based; details: pretreatment
# [4] = system: AP-1 transcriptional activity; experiment: IL-1 stimulated AP-1 transcriptional activity (AP-1 driven CAT reporter gene) in chondrocytes; format: cell-based; details: transfected chondrocytes, IL-1 50 ng/ml, 24 hours, paclitaxel 10^−7 to 10^−5 M
# Experimental: Chondrocytes were transfected with constructs containing an AP-1 driven CAT reporter gene, and stimulated with IL-1, IL-1 (50 ng/ml) was added and incubated for 24 hours in the absence and presence of paclitaxel at various concentrations. […] The data noted with an asterisk (*) have significance compared with IL-1-induced CAT activity according to a t-test, P<0.05. The results shown are representative of three independent experiments.
# [5] = system: AP-1; experiment: IL-1 induced AP-1 binding activity in chondrocyte lysates (FIG. 1C); format: cell-based; details: lysates from chondrocytes pretreated with paclitaxel
# [6] = system: collagenase; experiment: IL-1 induced collagenase RNA levels in chondrocytes (FIG. 1D); format: cell-based; details: pretreatment
# [7] = system: collagenase (MMP-1) mRNA; experiment: IL-1 induced collagenase (MMP-1) mRNA expression in chondrocytes, Northern blot; details: 10^−5 M, 24 hours pretreatment, IL-1β 20 ng/ml
# [8] = 200 mg/day orally; cited from earlier work
# [9] = water; cited from earlier work
# [10] = system: ERK; experiment: ERK activation; format: cell-based
# [11] = system: p38; experiment: p38 activation; format: cell-based
# [12] = system: NFAT; experiment: NFAT activation, translocation and transactivation; format: cell-based
# [13] = system: joint swelling; experiment: chronic in vivo model of inflammation / chronic arthritis model; details: agent alone (prednisolone at reduced dose)
# [14] = system: glucocorticoid receptor; experiment: glucocorticoid receptor trafficking (mechanism study); format: cell-based
# [15] = system: GRE reporter plasmid in T cells; experiment: transactivation of a transfected GRE reporter plasmid in T cells; format: cell-based
# [16] = system: NFkB; experiment: NFkB activation; format: cell-based
# [17] = system: TNF-α; experiment: Rat carrageenan-induced paw edema model: TNF-α in paw tissue by ELISA; format: in vivo; details: 2.26 mg/kg
# Experimental: (§1) A dose-range finding study was performed to determine the anti-inflammatory activity of various ratios of methyl prednisolone acetate and amoxapine in a rat carrageenan-induced paw edema model. […] The molar ratio of methyl prednisolone acetate to amoxapine ranged from 1:1 to 1:300, using total doses of methyl prednisolone acetate of 0.01, 0.03 or 0.1 mg/kg.
# (§2) The test agent (a combination of methyl prednisolone acetate and amoxapine), vehicle control, or reference agents (methyl prednisolone acetate, amoxapine, or Depo-Medrol®) were administered in the left hind foot pad of rats. After 60 minutes, paw edema was induced by injection of 100 μl of 1% carrageenan in the same foot pad. The paw volume was measured with a water displacement plethysmometer immediately prior to test agent injection (T−1h), at the time of carrageenan injection (T0h), and at T6h. Animals were euthanized by carbon dioxide inhalation. Paw tissue samples were collected and flash frozen in liquid nitrogen. Samples were assayed for TNF-α by enzyme-linked immunoassay (ELISA).
# [18] = system: AP1; experiment: AP1 activation; format: cell-based
# [19] = system: LPS-induced TNF-α production; experiment: acute in vivo model of inflammation (LPS-induced TNF-α release); details: agent alone (prednisolone at reduced dose)
# [20] = system: carrageenan-induced paw edema; experiment: Rat carrageenan-induced paw edema model: paw swelling; format: in vivo; details: 2.26 mg/kg, local injection in paw at T-1 hr, Tmax = 6 hrs
# Experimental: as §1, §2
# [21] = system: JNK; experiment: JNK activation; format: cell-based
# [22] = in vivo; cited from earlier work
# [23] = in vivo; cited from earlier work; remark: listed apart in the source
# [24] = system: phosphatases of regenerating liver (PRL); details: cited from earlier work
# [25] = molecular target: protein tyrosine phosphatase 1B (PTP1B) (Homo sapiens, UniProt P18031); details: cited from earlier work
# Chain of protein tyrosine phosphatase 1B (PTP1B) (P18031 whole entry): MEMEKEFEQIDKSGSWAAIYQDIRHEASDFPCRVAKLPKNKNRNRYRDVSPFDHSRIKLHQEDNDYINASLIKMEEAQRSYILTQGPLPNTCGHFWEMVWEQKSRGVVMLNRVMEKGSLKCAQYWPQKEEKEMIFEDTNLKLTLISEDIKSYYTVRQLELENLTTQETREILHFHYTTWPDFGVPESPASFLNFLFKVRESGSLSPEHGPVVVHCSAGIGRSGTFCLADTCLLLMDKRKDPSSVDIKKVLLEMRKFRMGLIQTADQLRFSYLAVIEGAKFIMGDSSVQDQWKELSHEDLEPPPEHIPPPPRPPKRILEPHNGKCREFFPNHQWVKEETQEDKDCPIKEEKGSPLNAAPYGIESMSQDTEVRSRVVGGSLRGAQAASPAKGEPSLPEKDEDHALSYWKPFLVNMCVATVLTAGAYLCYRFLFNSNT
# [26] = system: endo-exonuclease; details: cited from earlier work
# [27] = system: mast cells; details: cited from earlier work
# [28] = system: eosinophil activation; details: cited from earlier work
smiles,measurement,setting,value
CC(=O)O[C@H]1C(=O)[C@@]2(C)[C@H]([C@H](OC(=O)c3ccccc3)[C@]3(O)C[C@H](OC(=O)[C@H](O)[C@@H](NC(=O)c4ccccc4)c4ccccc4)C(C)=C1C3(C)C)[C@]1(OC(C)=O)CO[C@@H]1C[C@@H]2O [paclitaxel],stromelysin mRNA level,[1],complete inhibition
same,IL-1 induced AP-1 binding activity,[2],decreased
same,IL-1 induction of stromelysin RNA levels,[3],can be inhibited
same,IL-1 induced AP-1 reporter gene CAT activity,[4],reduced IL-1 induced AP-1 reporter gene CAT activity
same,IL-1 induced binding activity,[5],decreased
same,IL-1 induction of collagenase RNA levels,[6],can be inhibited
same,collagenase mRNA level,[7],complete inhibition
CC(=O)N1CCN(c2ccc(OCC3COC(Cn4ccnc4)(c4ccc(Cl)cc4Cl)O3)cc2)CC1 (centres unmarked) [ketoconazole],serum concentration,[8],about 3.2 micrograms
same,solubility in water (in words),[9],essentially insoluble
Clc1ccc2c(c1)C(N1CCNCC1)=Nc1ccccc1O2 [amoxapine],ERK activation,[10],unaffected
same,p38 activation,[11],Inhibition
same,"NFAT activation, translocation and transactivation",[12],block
same,effect of the single agents in the chronic model,[13],modest or no benefit
same,glucocorticoid receptor trafficking,[14],does not promote
same,potentiation of prednisolone's ability to transactivate a GRE reporter plasmid,[15],does not potentiate
same,NFkB activation,[16],partially inhibits
same,TNF-α ± SEM,[17],32.6 ± 10.1 pg/g
same,AP1 activation,[18],partially inhibits
same,effect of the single agents in the acute / LPS model,[19],modest or no benefit
same,Edema ± SEM,[20],not significantly different from the vehicle treatment
same,Edema ± SEM,[20]; listed as Amoxapine,38.1 ± 3.3%
same,JNK activation,[21],Inhibition
"CN(C)/N=N/c1[nH]cnc1C(N)=O [Dacarbazine, dacarbazine]",absorption from the GI tract,[22],poorly absorbed
"O=C(Nc1ccc([N+](=O)[O-])cc1Cl)c1cc(Cl)ccc1O [Niclosamide, niclosamide]",toxicity in mammals,[23],very low toxicity
N=C(N)c1ccc(OCCCCCOc2ccc(C(=N)N)cc2)cc1 [pentamidine],inhibition of the oncogenic phosphatases of regenerating liver (PRL),[24],potent inhibitor
same,inhibition of protein tyrosine phosphatase 1B (PTP1B),[25],effective inhibitor
same,inhibition of the activity of endo-exonuclease,[26],inhibit
"CCOC(=O)N1CCC(=C2c3ccc(Cl)cc3CCc3cccnc32)CC1 [loratadine, Loratadine]",inhibition of mast cells,[27],inhibits
same,inhibition of eosinophil activation,[28],inhibits
